According to ChEMBL document CHEMBL4138144, “Biochemometrics to Identify Synergists and Additives from Botanical Medicines: A Case Study with Hydrastis canadensis (Goldenseal)” (J Nat Prod, 2018):
Active and inactive are the calls of the source. No cut-off for these calls is given here.

Columns and labels:
[1] = system: Staphylococcus aureus; assay: Potentiation of berberin induced antibacterial activity against Staphylococcus aureus SA1199 assessed as berberin MIC at 200 uM (reference value: 238 microM); assay type: functional
[2] = system: Staphylococcus aureus; assay: Antibacterial activity against Staphylococcus aureus SA1199 at 201.4 to 402.8 uM after 18 hrs by CLSI method; assay type: functional, organism-based
[3] = system: Staphylococcus aureus; assay: Potentiation of berberin induced antibacterial activity against Staphylococcus aureus SA1199 assessed as berberin MIC at 201.4 uM (reference value: 238 microM); assay type: functional

Structure (SMILES) | MIC [1] [µM] | Activity [2] | MIC [3] [µM]
O=C(/C=C/C=C/c1ccc2c(c1)OCO2)N1CCCCC1 [PIPERINE] | 119 | – | –
COc1ccc(-c2oc3c(C)c(OC)c(C)c(OC)c3c(=O)c2O)cc1O | – | inactive | 179
